For this experiment, the system named is SUM149PT. Kind of experiment: Cytotoxicity against human triple negative SUM149PT cells assessed as cell viability measured by MTS assay. The class given is functional, cell-based. For orientation: Formazan colour is commonly taken as a measure of viable cells.
The IC50 is the point on the concentration scale where inhibition reaches its midpoint. As to `CCCCc1nc(-c2ccc(OCCCN(CC)CC)cc2)nn1-c1ccc(-c2ccc(OC)cc2OC)cc1`, the concentration for half-maximal inhibition (IC50) was found to be 0.487 µM. Next, `CCCCc1nc(-c2ccc(OCCN3CCCCC3)cc2)nn1-c1ccc(Oc2ccc(Cl)cc2)cc1`: 5.68 µM; `CCCCc1nc(-c2ccc(OCCCN(CC)CC)cc2)cn1-c1ccc(Oc2ccc(Cl)cc2)cc1` [AZELIRAGON]: 5.29 µM. The result for `CCCCc1nc(-c2ccc(OCCC)cc2)nn1-c1ccc(Oc2ccccc2)cc1` reads 13.7 µM; that for `CCCCc1nc(-c2ccc(OCCCN(CC)CC)cc2)nn1-c1ccc(-c2ccc(OC)cc2)cc1`, 0.588 µM; that for `CCCCc1nc(-c2ccc(OCCOCC)cc2)nn1-c1ccc(Oc2ccc(Cl)cc2)cc1`, 18.6 µM.

`CCCCc1nc(-c2ccc(OCCCN(CC)CC)cc2)nn1-c1ccc(Oc2ccccc2)cc1`: the IC50 stood at 0.538 µM. Next, `CCN(CC)CCCOc1ccc(-c2nc(CCOC)n(-c3ccc(Oc4ccc(Cl)cc4)cc3)n2)cc1`: 12.5 µM. On to `CCCCc1nc(-c2ccc(OCCCN(CC)CC)cc2)nn1-c1ccc(-c2ccc(C(=O)OCC)cc2)cc1`, for which the IC50 was determined as 0.328 µM. Next, `CCCCc1nc(-c2ccc(OCCCN(CC)CC)cc2)nn1-c1ccc(Oc2ccc(Cl)cc2)cc1`: 6.29 µM; `CCCCc1nc(-c2ccc(OCCCN(CC)CC)cc2)nn1-c1ccc(-c2ccnn2C)cc1`: 0.665 µM. Next, `CCCCc1nc(-c2ccc(OCCCN(CC)CC)cc2)nn1-c1ccc(-c2ccc(C)cc2)cc1`: 0.267 µM; `CCCCc1nc(-c2ccc(OCCCN(CC)CC)cc2)nn1-c1ccc(-c2ccc(OC(F)(F)F)cc2)cc1`: 0.664 µM. The result for `CCCCOc1ccc(-c2nc(CCCC)n(-c3ccc(Oc4ccc(Cl)cc4)cc3)n2)cc1` reads 16 µM; that for `CCCCc1nc(-c2ccc(OCCCN(CC)CC)cc2)nn1-c1ccc(-c2ccc(Cl)cc2)cc1`, 0.22 µM. For `CCCCc1nc(-c2ccc(OCCCN(CC)CC)cc2)nn1-c1ccc(-c2ccc(C#N)cc2)cc1`, the 50% inhibitory concentration (IC50) was 5.43 µM.

Values taken from ChEMBL document CHEMBL5032533, “Design, synthesis and anti-TNBC activity of Azeliragon triazole analogues” (Bioorg Med Chem Lett, 2021).
